Assay results taken from PubChem BioAssay (NCI).
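Here, GI50 denotes the concentration required for 50% inhibition of growth. TGI marks complete inhibition of growth.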

Tests used:
Experiment in all cases: growth of human tumour cells (NCI), 384-well format
[1] = system: A498 renal
[2] = system: BT-549 breast
[3] = system: CCRF-CEM leukemia
[4] = system: COLO 205 colon
[5] = system: DU-145 prostate
[6] = system: EKVX NSCLC
[7] = system: HCC-2998 colon
[8] = system: HCT-15 colon
[9] = system: HL-60(TB) leukemia
[10] = system: HOP-62 NSCLC
[11] = system: HOP-92 NSCLC
[12] = system: HS 578T breast
[13] = system: HT29 colon
[14] = system: IGROV1 ovarian
[15] = system: K-562 leukemia
[16] = system: KM12 colon
[17] = system: LOX IMVI melanoma
[18] = system: M14 melanoma
[19] = system: MALME-3M melanoma
[20] = system: MDA-MB-231 breast
[21] = system: MDA-MB-435 melanoma
[22] = system: MDA-MB-468 breast
[23] = system: MOLT-4 leukemia
[24] = system: NCI-H226 lung
[25] = system: NCI-H23 lung
[26] = system: NCI-H322M lung
[27] = system: NCI-H460 NSCLC
[28] = system: NCI-H522 lung
[29] = system: NCI/ADR-RES ovarian
[30] = system: OVCAR-3 ovarian
[31] = system: OVCAR-4 ovarian
[32] = system: OVCAR-5 ovarian
[33] = system: OVCAR-8 ovarian
[34] = system: PC-3 prostate
[35] = system: RPMI-8226 leukemia
[36] = system: RXF 393 renal
[37] = system: SF-268 CNS
[38] = system: SF-295 CNS
[39] = system: SF-539 CNS
[40] = system: SK-MEL-28 melanoma
[41] = system: SK-MEL-5 melanoma
[42] = system: SN12C renal
[43] = system: SNB-19 CNS
[44] = system: SNB-75 CNS
[45] = system: SR leukemia
[46] = system: SW-620 colon
[47] = system: U251 glioblastoma
[48] = system: UACC-257 melanoma
[49] = system: UO-31 renal

## CCC(CC)c1cc(N[C@H]2CC[C@H](N)C2)n2nccc2n1
[1]
  GI50: 218 nM
  TGI: 457 nM
[2]
  GI50: 207 nM
  TGI: 459 nM
[3]
  GI50: 210 nM
  TGI: 423 nM
[4]
  GI50: 267 nM
  TGI: 646 nM
[5]
  GI50: 313 nM
  TGI: 933 nM
[6]
  GI50: 516 nM
  TGI: 2650 nM
[7]
  GI50: 235 nM
  TGI: 572 nM
[8]
  GI50: 348 nM
  TGI: 1390 nM
[9]
  GI50: 214 nM
  TGI: 378 nM
[10]
  GI50: 234 nM
  TGI: 532 nM
[11]
  GI50: 340 nM
  TGI: 24300 nM
[12]
  GI50: 269 nM
  TGI: 628 nM
[13]
  GI50: 406 nM
  TGI: > 100000 nM
[14]
  GI50: 414 nM
  TGI: > 100000 nM
[15]
  GI50: 345 nM
  TGI: 1230 nM
[16]
  GI50: 295 nM
  TGI: 906 nM
[17]
  GI50: 190 nM
  TGI: 343 nM
[18]
  GI50: 276 nM
  TGI: 766 nM
[19]
  GI50: 761 nM
  TGI: 1950 nM
[20]
  GI50: 269 nM
  TGI: 778 nM
[21]
  GI50: 320 nM
  TGI: 903 nM
[22]
  GI50: 254 nM
  TGI: 612 nM
[23]
  GI50: 247 nM
  TGI: 528 nM
[24]
  GI50: 226 nM
  TGI: 513 nM
[25]
  GI50: 220 nM
  TGI: 505 nM
[26]
  GI50: 403 nM
  TGI: 1510 nM
[27]
  GI50: 195 nM
  TGI: 461 nM
[28]
  GI50: 209 nM
  TGI: 455 nM
[29]
  GI50: 2250 nM
  TGI: 9280 nM
[30]
  GI50: 200 nM
  TGI: 411 nM
[31]
  GI50: 192 nM
  TGI: 414 nM
[32]
  GI50: 392 nM
  TGI: > 100000 nM
[33]
  GI50: 329 nM
  TGI: 1760 nM
[34]
  GI50: 262 nM
  TGI: 723 nM
[35]
  GI50: 181 nM
  TGI: 337 nM
[36]
  GI50: 191 nM
  TGI: 366 nM
[37]
  GI50: 274 nM
  TGI: 724 nM
[38]
  GI50: 223 nM
  TGI: 499 nM
[39]
  GI50: 210 nM
  TGI: 452 nM
[40]
  GI50: 969 nM
  TGI: 2220 nM
[41]
  GI50: 182 nM
  TGI: 331 nM
[42]
  GI50: 241 nM
  TGI: 598 nM
[43]
  GI50: 377 nM
  TGI: > 100000 nM
[44]
  GI50: 380 nM
  TGI: 1190 nM
[45]
  GI50: 125 nM
  TGI: 253 nM
[46]
  GI50: 360 nM
  TGI: 8000 nM
[47]
  GI50: 334 nM
  TGI: 995 nM
[48]
  GI50: 553 nM
  TGI: 1770 nM
[49]
  GI50: 388 nM
  TGI: 1970 nM
